Experimental data reported in ChEMBL document CHEMBL3727358, “Inhibitors of inducible form of 6-phosphofructose-2-kinase” (2014).

What was measured:
[1] = biological target: T1, 6-phosphofructo-2-kinase/fructose-2,6-bisphosphatase 3 (Homo sapiens, UniProt Q16875); test: Inhibition of iPFK2 (unknown origin) assessed as reduction in enzyme-mediated fructose-6-phosphate phosphorylation by measuring NADH absorbance pre-incubated for 10 mins before ATP/substrate addition followed by incubation for 1 hr by UV-Visible spectrometry based iPFK-2/PPI-PFK coupled enzyme assay
T1 sequence (Q16875 whole entry): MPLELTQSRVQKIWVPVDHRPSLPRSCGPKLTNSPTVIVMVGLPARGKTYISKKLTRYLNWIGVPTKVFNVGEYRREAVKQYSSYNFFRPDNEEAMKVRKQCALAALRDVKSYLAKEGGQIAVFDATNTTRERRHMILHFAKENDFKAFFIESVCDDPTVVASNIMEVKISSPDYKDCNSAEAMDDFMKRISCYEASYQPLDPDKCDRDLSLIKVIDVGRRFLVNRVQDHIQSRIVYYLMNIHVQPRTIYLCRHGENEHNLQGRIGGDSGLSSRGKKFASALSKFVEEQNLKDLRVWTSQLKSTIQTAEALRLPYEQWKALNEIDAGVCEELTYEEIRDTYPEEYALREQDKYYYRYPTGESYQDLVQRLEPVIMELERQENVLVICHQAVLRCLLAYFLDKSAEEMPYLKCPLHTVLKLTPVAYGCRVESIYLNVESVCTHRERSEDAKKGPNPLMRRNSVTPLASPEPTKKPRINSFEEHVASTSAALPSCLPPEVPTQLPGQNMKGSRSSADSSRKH

[2] = biological target: T1, 6-phosphofructo-2-kinase/fructose-2,6-bisphosphatase 3; test: Inhibition of iPFK2 (unknown origin) assessed as reduction in enzyme-mediated fructose-6-phosphate phosphorylation by measuring ATP consumption incubated for 3 hrs by luciferase-luciferin-coupled chemiluminescence assay

| Structure (SMILES) | IC50 [1] [µM] | IC50 [2] [µM] |
| --- | --- | --- |
| Cc1nc(NCC2CCCN(C(=O)C3CCC3)C2)cc(-c2ccc3ncsc3c2)n1 (stereo unspecified) | > 1 |  |
| Cc1cc(-c2cc(N[C@@H]3CCCc4ccccc43)nc(C)n2)ccn1 | > 1 | > 1 |
| COc1cccc([C@H](C)Nc2cc(-c3ccc(C)c(N)c3)nc(C)n2)c1 | > 1 |  |
| Cc1nc(N[C@@H]2CCCc3ccccc32)cc(-c2ccc3nonc3c2)n1 | > 1 |  |
| Cc1nc(N[C@@H]2CCCc3ccccc32)cc(-c2ccc3ncccc3c2)n1 | > 1 |  |
| COc1cccc([C@H](C)Nc2cc(-c3cc4ccccc4o3)nc(C)n2)c1 | > 1 | > 1 |
| COCCNS(=O)(=O)c1cccc(C(C)Nc2cc(-c3ccc4ncsc4c3)nc(C)n2)c1 (stereo unspecified) | > 1 | > 1 |
| COc1cccc(-c2cc(NC(C)c3cccc(O)c3)nc(C)n2)c1F (stereo unspecified) | > 1 | > 1 |
| Cc1nc(NC(C)c2cccc(OCCN(C)C)c2)cc(-c2ccc3occ(C)c3c2)n1 (stereo unspecified) | > 1 |  |
| Cc1nc(NCC2CCCN(C(=O)CN(C)C(=O)c3ccccc3)C2)cc(-c2ccc3ncsc3c2)n1 (stereo unspecified) | > 1 |  |
| CCN(CC)C(=O)COc1cccc(C(C)Nc2cc(-c3ccc4c(c3)N(C)CCO4)nc(C)n2)c1 (stereo unspecified) | > 1 |  |
| Cc1nc(NC(C)c2cccc(OCC3CCCN(C(=O)OC(C)(C)C)C3)c2)cc(-c2ccc3ncsc3c2)n1 (stereo unspecified) | > 1 | > 1 |
| Cc1nc(N[C@@H]2CCCc3ccccc32)cc(-c2ccc(C#N)cc2)n1 | > 1 | > 1 |
| Cc1nc(NC(C)c2cccc(NS(=O)(=O)c3cn(C)cn3)c2)cc(-c2ccc3ncsc3c2)n1 (stereo unspecified) | > 1 | > 1 |
| Cc1nc(NC(C)c2cccc(OCC(=O)Nc3ccccc3)c2)cc(-c2ccc3ncsc3c2)n1 (stereo unspecified) | > 1 | > 1 |
| Cc1nc(NC(C)c2cccc(-c3nn[nH]n3)c2)cc(-c2ccc3ncsc3c2)n1 (stereo unspecified) | > 1 |  |
| Cc1nc(NC(C)c2cccc(-c3ccnc(N)n3)c2)cc(-c2ccc3ncsc3c2)n1 (stereo unspecified) | > 1 |  |
| Cc1nc(N[C@@H]2CCCc3ccccc32)cc(-c2ccc3nccnc3c2)n1 | > 1 |  |
| Cc1nc(NC(C)c2cccc(OCC3CCN(C(=O)OC(C)(C)C)CC3)c2)cc(-c2ccc3ncsc3c2)n1 (stereo unspecified) | > 1 | > 1 |
| Cc1nc(NC(C)c2cccc(-c3cnn(C)c3)c2)cc(-c2ccc(F)c(Cl)c2)n1 (stereo unspecified) | > 1 |  |
| COc1cccc(Oc2cc(N[C@@H]3CCCc4ccccc43)nc(C)n2)c1 | > 1 |  |
| Cc1nc(N[C@@H]2CCOc3ccccc32)cc(-c2ccc3ncsc3c2)n1 | > 1 | > 1 |
| Cc1nc(NC(C)c2cccc(NC(=O)CN(C)C(=O)OC(C)(C)C)c2)cc(-c2ccc3ncsc3c2)n1 (stereo unspecified) | > 1 |  |
| Cc1nc(NCC2CCCN(C(=O)C3CCCCC3)C2)cc(-c2ccc3ncsc3c2)n1 (stereo unspecified) | > 1 |  |
| Cc1nc(NC(C)c2cccc(NC=O)c2)cc(-c2ccc3ncsc3c2)n1 (stereo unspecified) | > 1 | > 1 |
| Cc1nc(NC(C)c2cccc(-c3cnn(C)c3)c2)cc(-c2ccc3ccccc3c2)n1 (stereo unspecified) | > 1 |  |

| Structure (SMILES) | IC50 [1] [µM] | IC50 [2] [µM] |
| --- | --- | --- |
| Cc1nc(NCc2cc(OCC(=O)N3CCOCC3)ccc2F)cc(-c2ccc3ncsc3c2)n1 | > 1 |  |
| Cc1nc(NC(C)c2cccc(NC(N)=O)c2)cc(-c2ccc3ncsc3c2)n1 (stereo unspecified) | > 1 | > 1 |
| Cc1nc(N[C@H](C)c2cccc(-c3cnn(C)c3)c2)cc(-c2cccc(F)c2)n1 | > 1 |  |
| COc1cccc([C@H](C)Nc2cc(-c3ccc4ncccc4c3)nc(C)n2)c1 | > 1 |  |
| Cc1nc(NC(C)c2cccc(S(=O)(=O)NCCO)c2)cc(-c2ccc3ncsc3c2)n1 (stereo unspecified) | > 1 | 0.5 |
| Cc1nc(NC(C)c2cccc(-c3cnn(C)c3)c2)cc(-c2ccccc2C)n1 (stereo unspecified) | > 1 | > 1 |
| Cc1nc(NCC2CCCN(C(=O)c3ccc[nH]3)C2)cc(-c2ccc3ncsc3c2)n1 (stereo unspecified) | > 1 |  |
| Cc1nc(N[C@H](C)c2ccnc(-c3cnn(C)c3)c2)cc(-c2ccc3occ(C)c3c2)n1 | > 1 |  |
| CCN(CC)C(=O)COc1cccc(C(C)Nc2cc(-c3cccc(OC)c3F)nc(C)n2)c1 (stereo unspecified) | > 1 | > 1 |
| Cc1nc(N[C@@H]2CCCc3ccccc32)cc(-c2cc3ccccc3[nH]2)n1 | > 1 | > 1 |
| Cc1nc(NC(C)c2cccc(OCC[C@H](O)c3ccccc3)c2)cc(-c2ccc3ncsc3c2)n1 (stereo partly specified) | > 1 |  |
| Cc1cc(COc2ccc(F)c(C(C)Nc3cc(-c4ccc5ncsc5c4)nc(C)n3)c2)n(C)n1 (stereo unspecified) | > 1 | > 1 |
| Cc1nc(N[C@H](C)c2cccc(O)c2)cc(-c2ccc3ncsc3c2)n1 | > 1 | > 1 |
| Cc1nc(NC(C)c2cccc(OCC(=O)NC3CC3)c2)cc(-c2ccc3ncsc3c2)n1 (stereo unspecified) | 0.5 |  |
| Cc1nc(NC(C)c2cccc(OCCCN3CCCC3)c2)cc(-c2ccc3ncsc3c2)n1 (stereo unspecified) | 0.5 |  |
| CCN(CC)C(=O)COc1cccc(C(C)Nc2cc(-c3ccc4ccccc4c3)nc(C)n2)c1 (stereo unspecified) | 0.5 |  |
| COc1cc(-c2cc(NC(C)c3cccc(O)c3)nc(C)n2)ccc1C (stereo unspecified) | 0.5 | > 1 |
| Cc1nc(NC(C)c2cccc(/C(N)=N/O)c2)cc(-c2ccc3ncsc3c2)n1 (stereo unspecified) | > 1 |  |
| Cc1nc(NC(C)c2cccc(OCC(=O)NCC(C)O)c2)cc(-c2ccc3ncsc3c2)n1 (stereo unspecified) | > 1 | 0.5 |
| Cc1nc(NC(C)c2cccc(-c3cnn(C)c3)c2)cc(-c2cccc(N(C)C)c2)n1 (stereo unspecified) | > 1 |  |
| COc1cc(C(C)Nc2cc(-c3ccc4ncsc4c3)nc(C)n2)ccn1 (stereo unspecified) | 0.5 |  |
| Cc1nc(NC(C)c2cccc(OCC(=O)C3CC3)c2)cc(-c2ccc3ncsc3c2)n1 (stereo unspecified) | > 1 | > 1 |
| Cc1nc(NC(C)c2cccc(OCC(=O)O)c2)cc(-c2ccc3ncsc3c2)n1 (stereo unspecified) | > 1 |  |
| Cc1nc(N[C@H](C)c2cccc(-c3cnn(C)c3)c2)cc(-c2ccc3ncsc3c2)n1 | > 1 |  |
| COc1ccc(-c2cc(NC(C)c3cccc(-c4cnn(C)c4)c3)nc(C)n2)c(F)c1 (stereo unspecified) | > 1 |  |

Second part, the molecule after the results:

| IC50 [1] [µM] | IC50 [2] [µM] | Structure (SMILES) |
| --- | --- | --- |
| 0.5 | 0.5 | COc1cccc([C@H](C)Nc2cc(-c3ccc4c(c3)CCO4)nc(C)n2)c1 |
| 0.5 |  | CCN(C)C(=O)COc1cccc(C(C)Nc2cc(-c3ccc4ncsc4c3)nc(C)n2)c1 (stereo unspecified) |
| 0.5 | 0.5 | Cc1nc(NCc2cc(O)ccc2F)cc(-c2ccc3ncsc3c2)n1 |
| 0.5 | > 1 | Cc1nc(NC(C)c2cccc(NC(=O)c3ccn[nH]3)c2)cc(-c2ccc3ncsc3c2)n1 (stereo unspecified) |
| 0.5 | > 1 | COc1ccc(Br)c(CNc2cc(-c3ccc4ncsc4c3)nc(C)n2)c1 |
| 0.5 | 0.5 | C#CCOc1cccc(C(C)Nc2cc(-c3ccc4ncsc4c3)nc(C)n2)c1 (stereo unspecified) |
| 0.5 |  | Cc1nc(N[C@@H]2CCCc3ccccc32)cc(-c2ccc(Cl)c(COC(C)C(=O)O)c2)n1 (stereo partly specified) |
| 0.5 |  | Cc1nc(NC(C)c2cccc(OCCN(C)C)c2)cc(-c2ccc3ncsc3c2)n1 (stereo unspecified) |
| 0.5 | > 1 | Cc1nc(NC(C)c2cccc(NC(=O)NC(N)=O)c2)cc(-c2ccc3ncsc3c2)n1 (stereo unspecified) |
| 0.5 | 0.5 | COc1cccc([C@H](C)Nc2cc(-c3cc4ccccc4n3C)nc(C)n2)c1 |
| 0.5 | > 1 | Cc1nc(N[C@@H]2CCCc3ccccc32)cc(-c2cc3ccccc3s2)n1 |
| 0.5 |  | Cc1nc(N[C@@H](C)c2cccc(/C=C/C(=O)NC(C)(C)C)c2)cc(-c2ccc3ncsc3c2)n1 |
| 0.5 | > 1 | Cc1nc(NC(C)c2ccc(F)c(-c3cnn(C)c3)c2)cc(-c2ccc3ncsc3c2)n1 (stereo unspecified) |
| 0.5 | 0.5 | Cc1nc(NC(C)c2cccc(OCC#N)c2)cc(-c2ccc3ccn(C)c3c2)n1 (stereo unspecified) |
| 0.5 | 0.5 | Cc1nc(NC(C)c2cccc(OCc3cc(C)on3)c2)cc(-c2ccc3ncsc3c2)n1 (stereo unspecified) |
| 0.5 | > 1 | COc1cccc(-c2cc(N[C@@H]3CCCc4ccccc43)nc(C)n2)c1F |
| 0.5 |  | COCCNC(=O)COc1cccc(C(C)Nc2cc(-c3ccc4ncsc4c3)nc(C)n2)c1 (stereo unspecified) |

| IC50 [1] [µM] | IC50 [2] [µM] | Structure (SMILES) |
| --- | --- | --- |
| 0.5 | 0.5 | Cc1nc(N[C@@H]2CCCc3ccccc32)cc(-c2ccc3cnn(C)c3c2)n1 |
| 0.5 |  | Cc1nc(N[C@@H](C)c2cccc(-c3cnc(N4CCCCC4)nc3)c2)cc(-c2ccc3ncsc3c2)n1 |
| 0.5 | 0.5 | COc1ccc(-c2cc(NC(C)c3cccc(-c4cnn(C)c4)c3)nc(C)n2)cc1 (stereo unspecified) |
| 0.5 |  | Cc1nc(N[C@@H]2CCCc3ccccc32)cc(-c2ccc3c(c2)C(=O)C=CC3)n1 |
| 0.5 |  | Cc1nc(NC(C)c2cccc(-c3cnn(CC(=O)O)c3)c2)cc(-c2ccc3ncsc3c2)n1 (stereo unspecified) |
| 0.5 | > 1 | Cc1nc(NC(C)c2cccc(OC(C)C(N)=O)c2)cc(-c2ccc3ncsc3c2)n1 (stereo unspecified) |
| 0.5 |  | Cc1nc(NC(C)c2cccc(-c3cnn(C)c3)c2)cc(-c2cc(F)c(F)c(F)c2)n1 (stereo unspecified) |
| 0.5 | > 1 | Cc1nc(NC(C)c2ccc(Cl)c(O)c2)cc(-c2ccc3occ(C)c3c2)n1 (stereo unspecified) |
| 0.5 |  | Cc1nc(NC(C)c2cccc(OCC(N)=O)c2)cc(-c2cc3ccccc3n2C)n1 (stereo unspecified) |
| 0.5 | 0.5 | Cc1nc(NC(C)c2cccc(-c3cnn(C)c3)c2)cc(-c2ccc(Cl)cc2Cl)n1 (stereo unspecified) |
| 0.5 |  | CC(=O)N1CCN(CCOc2cccc(C(C)Nc3cc(-c4ccc5ncsc5c4)nc(C)n3)c2)CC1 (stereo unspecified) |
| 0.5 | 0.5 | Cc1nc(N[C@@H]2CCCc3ccccc32)cc(-c2ccc(C)c(O)c2)n1 |
| 0.5 | 0.5 | Cc1nc(NC(C)c2cccc(OCC3CCNCC3)c2)cc(-c2ccc3ncsc3c2)n1 (stereo unspecified) |
| 0.5 |  | Cc1nc(NCc2cc(OCC(=O)N(C)C)ccc2F)cc(-c2ccc3ncsc3c2)n1 |
| 0.5 |  | Cc1nc(NC(C)c2cccc(-c3cnn(C)c3)c2)cc(-c2ccc(F)c(F)c2)n1 (stereo unspecified) |
| 0.5 |  | CCN(CC)c1ncc(-c2cccc([C@H](C)Nc3cc(-c4ccc5ncsc5c4)nc(C)n3)c2)cn1 |
| 0.5 | > 1 | Cc1nc(NC(C)c2cccc(NC(=O)c3ccn(C)n3)c2)cc(-c2ccc3ncsc3c2)n1 (stereo unspecified) |
